Assays:
[1] = Nonenzymatic turnover (cyclization) of model substrates; assay type: physicochemical; details: without enzyme
mammalian QC = details: Busby et al. 1987 and later reports; cited from earlier work
human QC = target: T1, human QC (Homo sapiens, UniProt Q16769); test: QC inhibition by chelators (inhibitor assay); assay type: biochemical; details: human QC and other animal QCs
T1 construct: The cDNA of the mature QC starting with codon 38 was fused in frame with the plasmid encoded 6× histidine tag; 6x histidine; made in house; host or cells: Pichia pastoris X33 (pPICZαB) or E. coli M15 (pQE-31)
T1 sequence (Q16769 29-361): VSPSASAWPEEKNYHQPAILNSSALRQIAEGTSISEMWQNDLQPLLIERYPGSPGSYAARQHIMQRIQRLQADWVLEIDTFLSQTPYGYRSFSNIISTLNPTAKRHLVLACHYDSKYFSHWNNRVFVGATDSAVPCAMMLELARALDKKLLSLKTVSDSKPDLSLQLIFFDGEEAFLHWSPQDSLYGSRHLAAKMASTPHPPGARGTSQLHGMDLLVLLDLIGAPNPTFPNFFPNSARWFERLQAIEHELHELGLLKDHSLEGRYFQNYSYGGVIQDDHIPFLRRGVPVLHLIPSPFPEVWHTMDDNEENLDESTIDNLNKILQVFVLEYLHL
Experimental: QC activity was evaluated fluorometrically using H-Gln-βNA. The samples consisted of 0.2 mM fluorogenic substrate, 0.25 U pyroglutamyl aminopeptidase (Unizyme, Horsholm, Denmark) in 0.2 M Tris/HCl, pH 8.0 containing 20 mM EDTA and an appropriately diluted aliquot of QC in a final volume of 250 μl. Excitation/emission wavelengths were 320/410 nm. The assay reactions were initiated by addition of glutaminyl cyclase. QC activity was determined from a standard curve of β-naphthylamine under assay conditions.
Reactions were carried out at 30° C. utilizing the NOVOStar reader for microplates (BMG labtechnologies). The samples consisted of varying concentrations of the fluorogenic substrate, 0.1 U pyroglutamyl aminopeptidase (Qiagen) in 0.05 M Tris/HCl, pH 8.0 containing 5 mM EDTA and an appropriately diluted aliquot of QC in a final volume of 250 μl. Excitation/emission wavelengths were 380/460 nm. The assay reactions were initiated by addition of glutaminyl cyclase. QC activity was determined from a standard curve of 7-amino-4-methylcoumarin under assay conditions. The kinetic data were evaluated using GraFit software.
This novel assay was used to determine the kinetic parameters for most of the QC substrates.
The initial velocities were evaluated and the enzymatic activity was determined from a standard curve of ammonia under assay conditions. All samples were measured at 30° C., using either the […]uor Plus or the Sunrise (both from TECAN) reader for microplates. Kinetic data was evaluated using GraFit software.
For inhibitor testing, the sample composition was the same as described above, except for the putative inhibitory compound added. For a rapid test of QC-inhibition, samples contained 4 mM of the respective inhibitor and a substrate concentration at 1 KM. For detailed investigations of the inhibition and determination of Ki-values, influence of the inhibitor on the auxiliary enzymes was investigated first. […] The inhibitory constant was evaluated by fitting the set of progress curves to the general equation for competitive inhibition using GraFit software.

[2] = cited from earlier work
QC = test: pH-dependence of the QC catalyzed conversion of Glu-βNA; assay type: biochemical

Molecule | Inhibition of a mammalian QC (mammalian QC) | inhibition characteristics of QC by chelators (human QC) | further results
NC(=O)CC[C@H](N)C(=O)Nc1ccc2ccccc2c1 [Gln-NA, Glutaminyl-beta-naphthylamine] | – | – | nonenzymatic turnover [1]: negligible
O=C(O)CN(CCN(CC(=O)O)CC(=O)O)CC(=O)O [EDTA] | did not inhibit | – | –
c1cnc2c(c1)ccc1cccnc12 [1,10-phenanthroline] | detected | inhibition | –
reduced 6-methylpterin | detected | – | –
O=C(O)c1cccc(C(=O)O)n1 [dipicolinic acid] | – | inhibition | –
Oc1cccc2cccnc12 [8-hydroxy-quinoline] | – | inhibition | –
N[C@@H](CCC(=O)O)C(=O)O [Glutamate] | – | – | pKa-value for the α-amino moiety [2]: ~7.5; pKa-value for the γ-carboxylic moiety [2]: about 4.2
N[C@@H](CCC(=O)O)C(=O)Nc1ccc2ccccc2c1 [Glu-βNA] | – | – | nonenzymatic turnover [1]: negligible; kinetically determined pKa-value (QC): 7.55+/−0.02; pH-optimum of catalysis (QC): ~6.0

— patent US20080200567A1, “IN VIVO SCREENING MODELS FOR TREATMENT OF ALZHEIMER'S DISEASE AND OTHER QPCT-RELATED DISORDERS” (PROBIODRUG AG, priority 2007, published 2008)
